One data set in a line: Cytotoxicity XTT, HeLa. The format is cell-based, human. Particulars: human, HeLa cells, mean ± SD of 3 independent experiments in triplicate, read-out: cytotoxic IC50 HeLa. As for the experimental part:
HeLa and HEK 293 cells (ATCC CRL-1573) were cultured as described above and seeded into 96-well plates at 400 cells/well. Test and standard compounds were added to plate wells in triplicate (0.05% DMSO in culture medium) in a range of six concentrations. Following 72 h of incubation, […] of an activated XTT solution was added to the cells (1 mg/mL). The absorbance was measured at 450 nm after 2 h incubation at 37 °C. The growth of the compound-treated cells was compared with the growth of vehicle-treated control cells. IC50 values were calculated with GraphPad Prism 6.0.

The next data set addresses T1, HDAC2 (Homo sapiens, UniProt Q92769).
T1 construct: purchased Sigma Aldrich or Reaction Biology Corporation
The data set can be described thus: In vitro enzymatic assay HDAC2 (Fluor de Lys). The format is biochemical. As to conditions: average of at least 2 independent experiments in duplicates ± SEM.

For data set [1], the system named is α-tubulin acetylation in HeLa cells. The data set can be described thus: Acetyl-α-tubulin sandwich ELISA in HeLa cells. The format is cell-based, human. Particulars: 48 h. As for the experimental part: (§1) The acetyl-α-tubulin sandwich ELISA Kit (Pathscan® #7204, Cell Signalling) was used to determine tubulin acetylation levels, and Western blotting was used to evaluate histone H4 acetylation, both methods applied to lysates of treated and non-treated HeLa cells (ATCC CCL-2). Cells were cultured in DMEM medium, 4.5 g/L glucose, L-glutamine (Invitrogen), supplemented with 10% heat-inactivated fetal bovine serum (FBS, Biowest), 100 units/mL penicillin, and 100 μg/mL streptomycin, and 1% non-essential amino acids (Invitrogen) at 37 °C with 5% CO2. Prior to ELISA experiments, cells were seeded into 6-well plates at 150,000 cells/well and transfected with the HDAC6-GFP construct (pEGFP.N1-HDAC6, Addgene)[58], using the Lipofectamine 2000 reagent (Invitrogen). Cells were then treated with test compounds, standards or vehicle (0.5% DMSO in culture medium) for 48 h. After the incubation time, cells were washed with cold DPBS (Invitrogen) and lysates were obtained by recovering cells in cold lysis buffer provided in the ELISA kit, supplemented with a protease inhibitor tablet (SigmaFast, Sigma Aldrich). Briefly, cells were harvested in DPBS and centrifuged. The cell pellet was suspended in 100 μL lysis buffer, vortexed, and kept on melting ice for 30 min. Lysates were then obtained by recovering the supernatant after a centrifugation step of 10 min at 11,000 g, 4 °C. Protein concentration was determined by fluorimetry using the Qubit protein assay kit (Invitrogen). Cell lysates were tested at 1 mg/mL following the instructions provided by the ELISA kit manufacturer. For the Western blotting, cells were seeded into 100 mm Petri dishes and treated for 6 h. After the incubation time, cells were washed with cold DPBS (Invitrogen) supplemented with a protease inhibitor tablet (Sigma Fast, Sigma Aldrich), and lysates were obtained by recovering cells in 100 μL cold lysis buffer (10 mM Hepes pH 7.9, 1.5 mM MgCl2, 10 mM KCl, 0.5 mM DTT, 1.5 mM PMSF, 0.2M HCl) the same way as described above. […]
On the technique in general: ELISA stands for enzyme-linked immunosorbent assay.

In data set [2] the test system is histone H4 acetylation in HeLa cells. The data set can be described thus: Acetyl histone H4 Western blotting in HeLa cells. The format is cell-based, human. As to conditions: 500 μM, 6 h. As for the experimental part:
as §1, with “Lysates were then obtained by recovering the supernatant after a centrifugation step of 10 min at 11,000 g, 4 °C.” left out, “(Invitrogen).” for “(Invitrogen). Cell lysates were tested at 1 mg/mL following the instructions provided by the ELISA kit manufacturer. For the Western blotting, cells were seeded into 100 mm Petri dishes and treated for 6 h. After the incubation time, cells were washed with cold DPBS (Invitrogen) supplemented with a protease inhibitor tablet (Sigma Fast, Sigma Aldrich), and lysates were obtained by recovering cells in 100 μL cold lysis buffer (10 mM Hepes pH 7.9, 1.5 mM MgCl2, 10 mM KCl, 0.5 mM DTT, 1.5 mM PMSF, 0.2M HCl) the same way as described above.”
A general note: Immunoblotting shows a protein as a band on a membrane.

Another data set can be described thus: PAMPA-BBB. The format is in vitro ADME. As for the experimental part: The PAMPA experiment was performed according to the PAMPA-BBB method described by Di et al.[46]. Test compounds were dissolved at 20 mM in DMSO and then diluted 200 times using a buffer solution at pH 7.4 (prepared according to the Geigy table, containing 54 mM Na2HPO4 and 13 mM KH2PO4). The resulting solutions, containing the compounds at 100 μM (0.5% DMSO), represented the donor solutions at the initial time. A total of 280 μL of the donor solution were added in each well of a Teflon® 96-well microplate (Millipore MSSACCEPTOR) forming the donor compartments. Each well of a hydrophobic polyvinylidene fluoride (PVDF) 96-well microtitre filter plate (Multiscreen® MAIPN4550, 70% porosity, pore diameter 0.45 μm, cross-sectional area 0.3 cm^2) was impregnated with 4 μL of a polar brain lipids solution (20 mg/mL in dodecane, PBL obtained from Avanti Polar Lipids), placed under a fume hood and subjected to constant shaking at 75 rpm for approximately 10 min to homogeneously lay the artificial membrane. […] Each tested compound was analysed in triplicate. The effective passive permeability value (Pe) was calculated according the two-way flux equations, obtained from the Fick’s law[47]. The calculated effective passive permeability values Pe were considered relevant only if RSD < 15% as quality control was fulfilled. […]
On the technique in general: PAMPA measures passive passage across an artificial lipid membrane.

Molecules are shown by their SMILES.

The values below come from paper PMC4941420, “A Rational Approach for the Identification of Non-Hydroxamate HDAC6-Selective Inhibitors” (Scientific Reports, 2016).

A word on the IC50: it is the point on the concentration scale where inhibition reaches its midpoint.

T1 sequence (Q92769 whole entry): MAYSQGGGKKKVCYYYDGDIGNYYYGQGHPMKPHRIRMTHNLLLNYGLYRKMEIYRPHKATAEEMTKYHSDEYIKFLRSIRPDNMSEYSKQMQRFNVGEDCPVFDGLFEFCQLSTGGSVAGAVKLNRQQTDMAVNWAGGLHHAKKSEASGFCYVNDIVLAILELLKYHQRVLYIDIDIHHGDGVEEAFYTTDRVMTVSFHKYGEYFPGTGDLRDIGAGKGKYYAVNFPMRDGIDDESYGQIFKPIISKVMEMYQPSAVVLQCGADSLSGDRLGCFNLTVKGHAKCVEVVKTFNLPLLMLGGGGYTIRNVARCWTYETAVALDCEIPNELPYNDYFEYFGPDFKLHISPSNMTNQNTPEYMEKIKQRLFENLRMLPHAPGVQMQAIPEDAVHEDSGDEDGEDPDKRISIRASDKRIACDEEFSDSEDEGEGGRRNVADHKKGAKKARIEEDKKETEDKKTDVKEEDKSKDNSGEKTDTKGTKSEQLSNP

Turning to `NNC(=O)c1ccc(COc2ccccc2Cl)cc1` [AK-14], the IC50 at 72 h in “Cytotoxicity XTT, HeLa” was 299 ± 56.1 µM. Also, the 50% inhibitory concentration (IC50) against HDAC2 was over 1000 µM. The acetylated tubulin levels entry in data set [1] (250 μM) is “less remarkable effect”; in data set [1] (500 μM), “significantly increase”. Besides, the “acetylation profile of histone H4” value in data set [2] is “did not change”. The Papp at 18 h, 100 μM in the data set “PAMPA-BBB” (PAMPA, pH 7.4, 100 μM donor, 18 hours, room temperature, read-out: effective passive permeability Pe (PAMPA-BBB)) stood at 6.5 ×10⁻⁶ cm/s. Moreover, the PAMPA-BBB classification result in “PAMPA-BBB” (pH 7.4) is on record as “CNS +”.
